Assay results published in patent publication US10112890B2, “Compound, salt of compound, external agent for skin, cosmetic, and food additive” (SHOWA DENKO K.K., priority 2015, dated 2018).

Tested on: three-dimensionally cultured human skin model ("EPI-606X")
Assay: Skin permeability test
Assay type: in vitro ADME
Details: 24 hours; for Permeability (%): permeability into the skin model, 0.2% by mass sample solution in PBS (-), pH 7.4, 700 μL, 37° C., skin model extract plus receiver liquid, HPLC, (A/1400)×100; for permeability compared with compound (9)-101 / permeability compared with sodium pantothenate: skin model, comparison in words
Excerpt: The compound (1)-301, the compound (1)-302, the compound (9)-101, and sodium pantothenate (manufactured by Tokyo Kasei Kogyo Co., Ltd., the compound represented by the following formula) were respectively dissolved in Dubecco's PBS (−), and the pH of a solution was adjusted to 7.4 using a sodium hydroxide aqueous solution or hydrochloric acid, to obtain a solution having a concentration of 0.2% by mass as a sample solution. A three-dimensionally cultured human skin model (“EPI-606X”, manufactured by KURABO INDUSTRIES LTD.) was set such that the lower portion thereof was immersed in a 6-well plate containing the PBS solution (1 mL), and was allowed to stand in an incubator for 30 minutes under conditions of 37° C. at a carbon dioxide concentration of 5%. Next, the PBS solution was replaced with an HBSS (−) solution (1 mL) (hereinafter, referred to as a “receiver liquid”), the sample solution (700 μL) obtained in the above-described manner was added to the skin model, and the skin model was allowed to stand in an incubator under conditions of 37° C. at a carbon dioxide concentration of 5%. After the skin model was allowed to stand for 24 hours, the sample solution on the skin model was removed using a pipette, the skin model was taken out from the well and washed with the PBS (−) solution. Subsequently, a slice was cut from the skin model and put into a 2 mL tube. Methanol (1 mL) and stainless steel beads (manufactured by Tomy Company, Ltd., diameter of 5.5 mm) were added to the tube, and the slice was crushed under conditions of 2000 rpm for 10 seconds ten times using MULTI BEADS SHOCKER (manufactured by Yasui Kikai Corporation). After the slice was crushed, the obtained solution was transferred to a 2 mL Eppendorf tube and centrifuged at 12000 rpm for 5 minutes, the supernatant was filtered using a filter (pore size of 0.22 μm), thereby obtaining a skin model extract. Next, the compound (1)-301, the compound (1)-302, the compound (9)-101, and sodium pantothenate in the skin model extract and the receiver liquid were quantified by analyzing each of the compounds (test substances) using HPLC described above, and a total value A (μg) of these quantitative values was calculated. Further, the permeability into the skin model (%) of each of the compound (1)-301 (Example 1), the compound (1)-302 (Example 2), the compound (9)-101 (Reference Example 1), and sodium pantothenate (Comparative Example 1) added to the skin model was calculated according to Equation (i). Permeability (%)=(A/1400)×100 (i)

SMILES	Permeability (%)	permeability compared with compound (9)-101	permeability compared with sodium pantothenate
CCCCCCCCCCCCCCCC(=O)OCC(C)(C)C(O)C(=O)NCCC(=O)O (stereo not drawn) [Compound (1)-301, 3-[N-(4-hexadecanoyloxy-3,3-dimethyl-2-hydroxybutyryl)amino]propionic acid]	41 ± 4.7	clearly higher permeability	clearly higher permeability
CCCCCCCCC(CCCCCC)C(=O)OCC(C)(C)C(O)C(=O)NCCC(=O)O (stereo not drawn) [Compound (1)-302, 3-[N-(4-(2-hexyldecanoyl)oxy-3,3-dimethyl-2-hydroxybutyryl)amino]propionic acid]	44 ± 2.7	clearly higher permeability	clearly higher permeability
CCCCCCCCCC(=O)OCC(C)(C)C(O)C(=O)NCCC(=O)O (stereo not drawn) [Compound (9)-101, 3-[N-(4-decanoyloxy-3,3-dimethyl-2-hydroxybutyryl)amino]propionic acid, reference compound]	29 ± 0.8		clearly higher permeability
CC(C)(CO)[C@@H](O)C(=O)NCCC(=O)[O-].[Na+] [Sodium pantothenate, sodium pantothenate, reference compound]	18 ± 0.4		
